Assays:
erythrocytes = conditions: very low concentration (lower than 5 μM); cited from earlier work
lung cancer cells = assay: Xenograft model of lung cancer in nude mice, tumor volume; assay type: in vivo, nude mice (NU/NU)
Description: The polypeptide of the present invention is preventively injected into the rear parts of the necks of four nude mice (nude mice—NU/NU) for a week (5 times per week at a dose of 50 mg/Kg). Next, 1×10^6 lung cancer cells are injected into the hypodermic tissue of the right side of the abdomen of each nude mouse on Day 1. The abovementioned four nude mice function as the medicine test group. Next, the polypeptide is delivered to each nude mouse of the medicine test group at a dose of 50 mg/Kg 5 times per week from Day 1 to Day 43. Meanwhile, the weight and cancer size of each nude mouse of the medicine test group is recorded. […] Normal saline having a pH of 7.2-7.4 is subcutaneously injected into the four nude mice of the negative control group for a week (5 times per week). Next, 1×10^6 lung cancer cells are injected into the hypodermic tissue of the right side of the abdomen of each nude mouse of the negative control group on Day 1. Next, normal saline is delivered to each nude mouse of the negative control group 5 times per week from Day 1 to Day 43. Meanwhile, the weight and cancer size of each nude mouse of the negative control group is recorded. […] 1×10^6 lung cancer cells are injected into the hypodermic tissue of the right side of the abdomen of each nude mouse of the positive control group on Day 1. Next, a small-molecule anti-cancer drug Doxorubicin is intravenously injected into a region near the abdomen of each nude mouse of the positive control group once per week at a dose of 5 mg/Kg from Day 1 to Day 43 (refer to F Pastorino et. al., Clin. Cancer Res. 14(22): 7320-7329, 2008). Meanwhile, the weight and cancer size of each nude mouse of the positive control group is recorded. Different from the abovementioned two groups, medicine is not applied to the positive control group before Day 1. […] The mice of the three groups are dissected for examining and recording the weight of the tumor tissue on Day 43.

[1] = Weights, motility and side effects of nude mice in the xenograft experiment; assay type: in vivo, nude mice (NU/NU)
Description: The polypeptide of the present invention is preventively injected into the rear parts of the necks of four nude mice (nude mice—NU/NU) for a week (5 times per week at a dose of 50 mg/Kg). Next, 1×10^6 lung cancer cells are injected into the hypodermic tissue of the right side of the abdomen of each nude mouse on Day 1. The abovementioned four nude mice function as the medicine test group. Next, the polypeptide is delivered to each nude mouse of the medicine test group at a dose of 50 mg/Kg 5 times per week from Day 1 to Day 43. Meanwhile, the weight and cancer size of each nude mouse of the medicine test group is recorded. The negative control group also has four nude mice. Normal saline having a pH of 7.2-7.4 is subcutaneously injected into the four nude mice of the negative control group for a week (5 times per week). Next, 1×10^6 lung cancer cells are injected into the hypodermic tissue of the right side of the abdomen of each nude mouse of the negative control group on Day 1. Next, normal saline is delivered to each nude mouse of the negative control group 5 times per week from Day 1 to Day 43. Meanwhile, the weight and cancer size of each nude mouse of the negative control group is recorded. The positive control group also has four nude mice. 1×10^6 lung cancer cells are injected into the hypodermic tissue of the right side of the abdomen of each nude mouse of the positive control group on Day 1. Next, a small-molecule anti-cancer drug Doxorubicin is intravenously injected into a region near the abdomen of each nude mouse of the positive control group once per week at a dose of 5 mg/Kg from Day 1 to Day 43 (refer to F Pastorino et. al., Clin. Cancer Res. 14(22): 7320-7329, 2008). Meanwhile, the weight and cancer size of each nude mouse of the positive control group is recorded. Different from the abovementioned two groups, medicine is not applied to the positive control group before Day 1. The medicine test group, negative control group and positive group are observed until Day 43. The mice of the three groups are dissected for examining and recording the weight of the tumor tissue on Day 43.

**Q.** Which erythrocytes damaged (erythrocytes) does the source give for `CC[C@H](C)[C@H](NC(=O)CN)C(=O)NCC(=O)N[C@@H](C)C(=O)N[C@H](C(=O)N[C@@H](CC(C)C)C(=O)N[C@@H](CCCCN)C(=O)N[C@H](C(=O)N[C@@H](CC(C)C)C(=O)N[C@H](C(=O)N[C@H](C(=O)NCC(=O)N[C@@H](CC(C)C)C(=O)N1CCC[C@H]1C(=O)N[C@@H](C)C(=O)N[C@@H](CC(C)C)C(=O)N[C@H](C(=O)N[C@@H](CO)C(=O)N[C@@H](Cc1c[nH]c2ccccc12)C(=O)N[C@H](C(=O)N[C@@H](CCCCN)C(=O)N[C@@H](CCCNC(=N)N)C(=O)N[C@@H](CCCCN)C(=O)N[C@@H](CCCNC(=N)N)C(=O)N[C@@H](CCC(N)=O)C(=O)N[C@@H](CCC(N)=O)C(N)=O)[C@@H](C)CC)[C@@H](C)CC)[C@@H](C)O)[C@@H](C)O)C(C)C)C(C)C` [melittin] here?
**A.** about 90%

**Q.** For `COc1cccc2c1C(=O)c1c(O)c3c(c(O)c1C2=O)C[C@@](O)(C(=O)CO)C[C@@H]3O[C@H]1C[C@H](N)[C@H](O)[C@H](C)O1` [Dox, Doxorubicin], which “Tumor Volumes of Nude Mice” value (lung cancer cells; D22, polypeptide 50 mg/Kg s.c. 5 times per week (plus one week before D1), Dox 5 mg/Kg i.v. once per week) is on record?
**A.** 57.8 mm^3

**Q.** And the “Tumor Volumes of Nude Mice” value (lung cancer cells; D29, same dosing)?
**A.** 373.8 mm^3

**Q.** What about the “Tumor Volumes of Nude Mice” value (lung cancer cells; D33, same dosing) of the same compound?
**A.** 553.5 mm^3

**Q.** What about the “Tumor Volumes of Nude Mice” value (lung cancer cells; D36, same dosing) of the same compound?
**A.** 632.6 mm^3

**Q.** What about the “Tumor Volumes of Nude Mice” value (lung cancer cells; D40, same dosing) of the same compound?
**A.** 884.5 mm^3

**Q.** What about the “Tumor Volumes of Nude Mice” value (lung cancer cells; D43, same dosing) of the same compound?
**A.** 1308.9 mm^3

**Q.** What about the “ratio of the average tumor volumes of treated group and negative control group (saline)” value (lung cancer cells; at best, Day 40) of the same compound?
**A.** 52.0%

**Q.** What about the “ratio of the average tumor volumes of treated group and negative control group (saline)” value (lung cancer cells; end of the experiment (Day 43)) of the same compound?
**A.** 83.05%

**Q.** What about the “Weights of Nude Mice” value ([1]; D1, polypeptide 50 mg/Kg s.c. 5 times per week (plus one week before D1), Dox 5 mg/Kg i.v. once per week) of the same compound?
**A.** 25.6 gram

**Q.** What about the “Weights of Nude Mice” value ([1]; D5, same dosing) of the same compound?
**A.** 26.5 gram

**Q.** What about the “Weights of Nude Mice” value ([1]; D8, same dosing) of the same compound?
**A.** 27.8 gram

**Q.** What about the “Weights of Nude Mice” value ([1]; D12, same dosing) of the same compound?
**A.** 28.2 gram

**Q.** What about the “Weights of Nude Mice” value ([1]; D15, same dosing) of the same compound?
**A.** 28.8 gram

**Q.** What about the “Weights of Nude Mice” value ([1]; D19, same dosing) of the same compound?
**A.** 30.4 gram

**Q.** And the “Weights of Nude Mice” value ([1]; D22, same dosing)?
**A.** 30.0 gram

**Q.** And the “Weights of Nude Mice” value ([1]; D26, same dosing)?
**A.** 30.4 gram

**Q.** And the “Weights of Nude Mice” value ([1]; D29, same dosing)?
**A.** 30.0 gram

**Q.** What about the “Weights of Nude Mice” value ([1]; D33, same dosing) of the same compound?
**A.** 31.5 gram

**Q.** What about the “Weights of Nude Mice” value ([1]; D36, same dosing) of the same compound?
**A.** 32.1 gram

**Q.** What about the “Weights of Nude Mice” value ([1]; D40, same dosing) of the same compound?
**A.** 32.5 gram

**Q.** What about the “Weights of Nude Mice” value ([1]; D43, same dosing) of the same compound?
**A.** 32.8 gram

**Q.** And the “weights and motilities during the experiment” value ([1]; Day 1 to Day 43)?
**A.** do not vary significantly
